Reference: patent US20090012045A1, “Methods of Treating Cell Proliferative Disorders” (RIGEL PHARMACEUTICALS, INC., priority 2007, published 2009)

Tests used:
CCRF-CEM = CCRF-CEM (Leukemia)
HL-60(TB) = HL-60(TB) (Leukemia)
MOLT-4 = MOLT-4 (Leukemia)
SR = SR (Leukemia)
HOP-62 = HOP-62 (Non-Small Cell Lung Cancer)
HOP-92 = HOP-92 (Non-Small Cell Lung Cancer)
NCI-H23 = NCI-H23 (Non-Small Cell Lung Cancer)
NCI-H460 = NCI-H460 (Non-Small Cell Lung Cancer)
NCI-H522 = NCI-H522 (Non-Small Cell Lung Cancer)
HCT-15 = HCT-15 (Colon Cancer)
HT29 = HT29 (Colon Cancer)
SW-620 = SW-620 (Colon Cancer)
SF-268 = SF-268 (CNS Cancer)
SF-295 = SF-295 (CNS Cancer)
SF-539 = SF-539 (CNS Cancer)
SNB-19 = SNB-19 (CNS Cancer)
SNB-75 = SNB-75 (CNS Cancer)
U251 = U251 (CNS Cancer)
SK-MEL-2 = SK-MEL-2 (Melanoma)
SK-MEL-28 = SK-MEL-28 (Melanoma)
UACC-257 = UACC-257 (Melanoma)
A498 = A498 (Renal Cancer)
CAKI-1 = CAKI-1 (Renal Cancer)
SN12C = SN12C (Renal Cancer)
TK-10 = TK-10 (Renal Cancer)
UO-31 = UO-31 (Renal Cancer)
MCF7 = MCF7 (Breast Cancer)
NCI/ADR-RES = NCI/ADR-RES (Breast Cancer)
MDA-MB-231/ATCC = MDA-MB-231/ATCC (Breast Cancer)
HS 578T = HS 578T (Breast Cancer)
MDA-MB-435 = MDA-MB-435 (Breast Cancer)
T-47D = T-47D (Breast Cancer)

Compound `COc1cc(Nc2ncc(F)c(Nc3ccc4c(n3)NC(=O)C(C)(C)O4)n2)cc(OC)c1OC.O=S(=O)(O)c1ccccc1` [Compound 1 (besylate salt), N4-(2,2-Dimethyl-3-oxo-4H-5-pyrid[1,4]oxazin-6-yl)-5-fluoro-N2-(3,4,5-trimethoxyphenyl)-2,4-pyrimidinediamine Benzenesulfonic Acid Salt] has a TGI (CCRF-CEM) of over 1.00E−4, a CC50 (CCRF-CEM; read-out: LC50) of over 100 µM and a GI50 (HL-60(TB)) of over 100 µM. The TGI (HL-60(TB)) was over 1.00E−4, the CC50 (HL-60(TB); read-out: LC50) was over 100 µM and the GI50 (MOLT-4) was 4.82 µM. The TGI (MOLT-4) was over 1.00E−4, the CC50 (MOLT-4; read-out: LC50) was over 100 µM and the GI50 (SR) was 3.56 µM. It also gave a TGI (SR) of over 1.00E−4, a CC50 (SR; read-out: LC50) of over 100 µM and a GI50 (HOP-62) of 0.537 µM. For the same compound, the TGI (HOP-62) was over 1.00E−4, the CC50 (HOP-62; read-out: LC50) was over 100 µM and the GI50 (HOP-92) was 0.41 µM. For the same compound, the CC50 (HOP-92; read-out: LC50) was over 100 µM, the TGI (NCI-H23) was over 1.00E−4 and the CC50 (NCI-H23; read-out: LC50) was over 100 µM. It also gave a TGI (NCI-H460) of over 1.00E−4, a CC50 (NCI-H460; read-out: LC50) of over 100 µM and a TGI (NCI-H522) of over 1.00E−4. The CC50 (NCI-H522; read-out: LC50) was over 100 µM, the TGI (HCT-15) was over 1.00E−4 and the CC50 (HCT-15; read-out: LC50) was over 100 µM. The GI50 (HT29) was 2.19 µM, the TGI (HT29) was over 1.00E−4 and the CC50 (HT29; read-out: LC50) was over 100 µM. The TGI (SW-620) was over 1.00E−4, the CC50 (SW-620; read-out: LC50) was over 100 µM and the GI50 (SF-268) was 1.7 µM. For the same compound, the TGI (SF-268) was over 1.00E−4, the CC50 (SF-268; read-out: LC50) was over 100 µM and the TGI (SF-295) was over 1.00E−4. The CC50 (SF-295; read-out: LC50) was over 100 µM, the GI50 (SF-539) was 0.605 µM and the CC50 (SF-539; read-out: LC50) was over 100 µM. The GI50 (SNB-19) was over 100 µM, the TGI (SNB-19) was over 1.00E−4 and the CC50 (SNB-19; read-out: LC50) was over 100 µM. The GI50 (SNB-75) was 0.871 µM, the TGI (SNB-75) was over 1.00E−4 and the CC50 (SNB-75; read-out: LC50) was over 100 µM. For the same compound, the TGI (U251) was over 1.00E−4, the CC50 (U251; read-out: LC50) was over 100 µM and the GI50 (SK-MEL-2) was over 100 µM. For the same compound, the TGI (SK-MEL-2) was over 1.00E−4, the CC50 (SK-MEL-2; read-out: LC50) was over 100 µM and the GI50 (SK-MEL-28) was over 100 µM. The TGI (SK-MEL-28) was over 1.00E−4, the CC50 (SK-MEL-28; read-out: LC50) was over 100 µM and the GI50 (UACC-257) was over 100 µM. The TGI (UACC-257) was over 1.00E−4, the CC50 (UACC-257; read-out: LC50) was over 100 µM and the GI50 (A498) was 0.36 µM. The CC50 (A498; read-out: LC50) was over 100 µM, the GI50 (CAKI-1) was 0.0515 µM and the TGI (CAKI-1) was 2.44E−6. For the same compound, the CC50 (CAKI-1; read-out: LC50) was over 100 µM, the GI50 (SN12C) was 0.698 µM and the TGI (SN12C) was over 1.00E−4. The CC50 (SN12C; read-out: LC50) was over 100 µM, the TGI (TK-10) was over 1.00E−4 and the CC50 (TK-10; read-out: LC50) was over 100 µM. The GI50 (UO-31) was 0.596 µM, the TGI (UO-31) was over 1.00E−4 and the CC50 (UO-31; read-out: LC50) was over 100 µM. For the same compound, the GI50 (MCF7) was 2.72 µM, the TGI (MCF7) was over 1.00E−4 and the CC50 (MCF7; read-out: LC50) was over 100 µM. The GI50 (NCI/ADR-RES) was over 100 µM, the TGI (NCI/ADR-RES) was over 1.00E−4 and the CC50 (NCI/ADR-RES; read-out: LC50) was over 100 µM. The TGI (MDA-MB-231/ATCC) was over 1.00E−4, the CC50 (MDA-MB-231/ATCC; read-out: LC50) was over 100 µM and the GI50 (HS 578T) was 1.19 µM. For the same compound, the TGI (HS 578T) was over 1.00E−4, the CC50 (HS 578T; read-out: LC50) was over 100 µM and the GI50 (MDA-MB-435) was 3.62 µM. For the same compound, the TGI (MDA-MB-435) was over 1.00E−4, the CC50 (MDA-MB-435; read-out: LC50) was over 100 µM and the TGI (T-47D) was over 1.00E−4. The CC50 (T-47D; read-out: LC50) was over 100 µM.
